Assay results as given in ChEMBL document CHEMBL5346892, “Design and synthesis of benzochromene derivatives as AcrB inhibitors for the reversal of bacterial multidrug resistance” (Eur J Med Chem, 2023).
Active and inactive are the calls of the source. No cut-off for these calls is given here.

Tests used:
Escherichia coli [1] = test: Synergistic antibacterial activity against wild type Escherichia coli BW25113 assessed as erythromycin MIC at 8 microg/ml incubated for 18 hrs by broth dilution assay; type: functional; conditions: dose 8 µg/ml
Escherichia coli [2] = test: Synergistic antibacterial activity against wild type Escherichia coli BW25113 assessed as erythromycin MIC at 16 microg/ml incubated for 18 hrs by broth dilution assay; type: functional; conditions: dose 16 µg/ml
Escherichia coli [3] = test: Synergistic antibacterial activity against wild type Escherichia coli BW25113 assessed as erythromycin MIC at 32 microg/ml incubated for 18 hrs by broth dilution assay; type: functional; conditions: dose 32 µg/ml
Escherichia coli [4] = test: Synergistic antibacterial activity against wild type Escherichia coli BW25113 assessed as erythromycin MIC at 64 microg/ml incubated for 18 hrs by broth dilution assay; type: functional; conditions: dose 64 µg/ml
Escherichia coli [5] = test: Synergistic antibacterial activity against wild type Escherichia coli BW25113 assessed as erythromycin MIC at 128 microg/ml incubated for 18 hrs by broth dilution assay; type: functional; conditions: dose 128 µg/ml
Escherichia coli [6] = test: Synergistic antibacterial activity against wild type Escherichia coli BW25113 assessed as levofloxacin MIC at 8 microg/ml incubated for 18 hrs by broth dilution assay; type: functional; conditions: dose 8 µg/ml
Escherichia coli [7] = test: Synergistic antibacterial activity against wild type Escherichia coli BW25113 assessed as levofloxacin MIC at 32 microg/ml incubated for 18 hrs by broth dilution assay; type: functional; conditions: dose 32 µg/ml
Escherichia coli [8] = test: Synergistic antibacterial activity against wild type Escherichia coli BW25113 assessed as levofloxacin MIC at 64 microg/ml incubated for 18 hrs by broth dilution assay; type: functional; conditions: dose 64 µg/ml
Escherichia coli [9] = test: Synergistic antibacterial activity against wild type Escherichia coli BW25113 assessed as levofloxacin MIC at 128 microg/ml incubated for 18 hrs by broth dilution assay; type: functional; conditions: dose 128 µg/ml
Escherichia coli [10] = test: Synergistic antibacterial activity against wild type Escherichia coli BW25113 assessed as minocycline MIC at 16 microg/ml incubated for 18 hrs by broth dilution assay; type: functional; conditions: dose 16 µg/ml
Escherichia coli [11] = test: Synergistic antibacterial activity against wild type Escherichia coli BW25113 assessed as minocycline MIC at 32 microg/ml incubated for 18 hrs by broth dilution assay; type: functional; conditions: dose 32 µg/ml
Escherichia coli [12] = test: Synergistic antibacterial activity against wild type Escherichia coli BW25113 assessed as minocycline MIC at 64 microg/ml incubated for 18 hrs by broth dilution assay; type: functional; conditions: dose 64 µg/ml
Escherichia coli [13] = test: Synergistic antibacterial activity against wild type Escherichia coli BW25113 assessed as levofloxacin MIC at 32 microg/ml incubated for 18 hrs in presence of colistin by broth dilution assay; type: functional; conditions: dose 32 µg/ml
Escherichia coli [14] = test: Synergistic antibacterial activity against wild type Escherichia coli BW25113 assessed as minocycline MIC at 8 microg/ml incubated for 18 hrs in presence of colistin by broth dilution assay; type: functional; conditions: dose 8 µg/ml
[15] = molecular target: T1, Multidrug efflux pump subunit AcrB (Escherichia coli (strain K12)) (UniProt P31224); test: Inhibition of Escherichia coli BW25113 AcrB assessed as inhibition of nile red efflux at 50 uM incubated for 15 mins
T1 sequence (whole entry): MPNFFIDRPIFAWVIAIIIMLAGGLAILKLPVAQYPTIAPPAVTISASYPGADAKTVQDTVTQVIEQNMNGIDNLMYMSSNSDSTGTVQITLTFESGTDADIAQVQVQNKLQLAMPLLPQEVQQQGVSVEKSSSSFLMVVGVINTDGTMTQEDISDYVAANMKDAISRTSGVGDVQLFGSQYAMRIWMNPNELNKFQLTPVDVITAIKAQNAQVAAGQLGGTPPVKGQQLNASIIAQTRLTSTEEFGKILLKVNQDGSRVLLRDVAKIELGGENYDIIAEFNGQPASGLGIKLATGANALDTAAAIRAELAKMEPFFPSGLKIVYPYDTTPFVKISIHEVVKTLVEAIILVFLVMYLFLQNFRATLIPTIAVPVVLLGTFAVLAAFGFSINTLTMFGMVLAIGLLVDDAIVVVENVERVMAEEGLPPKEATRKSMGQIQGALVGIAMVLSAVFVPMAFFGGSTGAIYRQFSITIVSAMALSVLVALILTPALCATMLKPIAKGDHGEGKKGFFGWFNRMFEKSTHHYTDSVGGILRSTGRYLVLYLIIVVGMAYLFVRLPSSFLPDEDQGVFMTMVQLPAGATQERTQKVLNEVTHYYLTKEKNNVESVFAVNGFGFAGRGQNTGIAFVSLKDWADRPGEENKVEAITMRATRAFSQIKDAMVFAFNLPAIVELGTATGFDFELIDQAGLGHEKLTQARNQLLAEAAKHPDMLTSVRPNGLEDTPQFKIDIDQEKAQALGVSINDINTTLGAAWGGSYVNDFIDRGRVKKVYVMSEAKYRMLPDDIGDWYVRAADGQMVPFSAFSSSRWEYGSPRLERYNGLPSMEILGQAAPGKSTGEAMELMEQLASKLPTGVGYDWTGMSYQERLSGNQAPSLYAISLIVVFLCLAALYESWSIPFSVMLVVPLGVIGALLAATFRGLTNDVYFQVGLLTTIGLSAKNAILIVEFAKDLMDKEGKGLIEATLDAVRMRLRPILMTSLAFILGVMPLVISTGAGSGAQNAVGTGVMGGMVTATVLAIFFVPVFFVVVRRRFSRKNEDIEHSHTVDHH

Cell membrane = test: Induction of inner membrane permeabilization in Escherichia coli BW25113 assessed as increase in fluorescence intensity at 64 microg/ml incubated for 10 mins by DiOC2 dye based fluorimeter analysis; type: subcellular; conditions: dose 64.0 µg/ml
[16] = Hemolytic activity in mouse RBC assessed as hemolysis at 4 to 256 microg/ml incubated for 1 hr by microplate reader analysis; type: toxicity, cell-based, Erythrocyte; conditions: mouse red blood cells (erythrocytes), at 4 to 256 µg/mL, dose 4-256 µg/ml, read-out: Activity
[17] = Toxicity in Caenorhabditis elegans assessed as survival rate at 128 microg/ml measured after 72 hrs by light microscopic analysis; conditions: at 128 µg/mL
Escherichia coli [18] = test: Synergistic antibacterial activity against wild type Escherichia coli BW25113 assessed as erythromycin MIC at 16 microg/ml incubated for 18 hrs in presence of colistin by broth dilution assay; type: functional; conditions: dose 16 µg/ml
Escherichia coli [19] = test: Synergistic antibacterial activity against wild type Escherichia coli BW25113 assessed as erythromycin MIC at 32 microg/ml incubated for 18 hrs in presence of colistin by broth dilution assay; type: functional; conditions: dose 32 µg/ml
Escherichia coli [20] = test: Synergistic antibacterial activity against wild type Escherichia coli BW25113 assessed as erythromycin MIC at 64 microg/ml incubated for 18 hrs in presence of colistin by broth dilution assay; type: functional; conditions: dose 64 µg/ml
Escherichia coli [21] = test: Synergistic antibacterial activity against wild type Escherichia coli BW25113 assessed as levofloxacin MIC at 16 microg/ml incubated for 18 hrs in presence of colistin by broth dilution assay; type: functional; conditions: dose 16 µg/ml
Escherichia coli [22] = test: Synergistic antibacterial activity against wild type Escherichia coli BW25113 assessed as minocycline MIC at 16 microg/ml incubated for 18 hrs in presence of colistin by broth dilution assay; type: functional; conditions: dose 16 µg/ml
Escherichia coli [23] = test: Synergistic antibacterial activity against wild type Escherichia coli BW25113 assessed as minocycline MIC at 32 microg/ml incubated for 18 hrs in presence of colistin by broth dilution assay; type: functional; conditions: dose 32 µg/ml
Escherichia coli [24] = test: Synergistic antibacterial activity against wild type Escherichia coli BW25113 assessed as minocycline MIC at 64 microg/ml incubated for 18 hrs in presence of colistin by broth dilution assay; type: functional; conditions: dose 64 µg/ml

## CC1(C)CCc2c(C(=O)N3CCOCC3)cc3c(OCCN4CCN(c5ccccc5)CC4)cccc3c2O1
Escherichia coli [1]
  MIC: 32 µg/mL
Escherichia coli [2]
  MIC: 32 µg/mL
Escherichia coli [3]
  MIC: 32 µg/mL
Escherichia coli [4]
  MIC: 32 µg/mL
Escherichia coli [5]
  MIC: 16 µg/mL
Escherichia coli [6]
  MIC: 0.032 µg/mL
Escherichia coli [7]
  MIC: 0.016 µg/mL
Escherichia coli [8]
  MIC: 0.016 µg/mL
Escherichia coli [9]
  MIC: 0.016 µg/mL
Escherichia coli [10]
  MIC: 2 µg/mL
Escherichia coli [11]
  MIC: 2 µg/mL
Escherichia coli [12]
  MIC: 2 µg/mL
Escherichia coli [13]
  MIC: 0.032 µg/mL
Escherichia coli [14]
  MIC: 0.5 µg/mL
[15]
  inhibition: Active
Cell membrane
  Activity: inactive
[16]
  hemolysis at 1 h: < 5%
[17]
  survival at 72 h, 128 microg/ml: 90%

## CC1(C)CCc2c(C(=O)N3CCOCC3)cc3c(OCCSc4ccc([N+](=O)[O-])cc4)cccc3c2O1
Escherichia coli [1]
  MIC: 16 µg/mL
Escherichia coli [2]
  MIC: 16 µg/mL
Escherichia coli [3]
  MIC: 16 µg/mL
Escherichia coli [4]
  MIC: 16 µg/mL
Escherichia coli [5]
  MIC: 16 µg/mL
Escherichia coli [6]
  MIC: 0.016 µg/mL
Escherichia coli [7]
  MIC: 0.016 µg/mL
Escherichia coli [8]
  MIC: 0.016 µg/mL
Escherichia coli [9]
  MIC: 0.016 µg/mL
Escherichia coli [10]
  MIC: 2 µg/mL
Escherichia coli [11]
  MIC: 2 µg/mL
Escherichia coli [12]
  MIC: 1 µg/mL
Escherichia coli [18]
  MIC: 8 µg/mL
Escherichia coli [19]
  MIC: 4 µg/mL
Escherichia coli [20]
  MIC: 4 µg/mL
Escherichia coli [21]
  MIC: 0.032 µg/mL
Escherichia coli [13]
  MIC: 0.032 µg/mL
Escherichia coli [14]
  MIC: 1 µg/mL
Escherichia coli [22]
  MIC: 1 µg/mL
Escherichia coli [23]
  MIC: 1 µg/mL
Escherichia coli [24]
  MIC: 0.5 µg/mL
Cell membrane
  Activity: inactive
[16]
  hemolysis at 1 h: < 5%
[17]
  survival at 72 h, 128 microg/ml: 90%

## CC1(C)CCc2c(C(=O)N3CCOCC3)cc3c(OCCCOc4cccc(C(=O)O)c4)cccc3c2O1
Escherichia coli [1]
  MIC: 32 µg/mL
Escherichia coli [2]
  MIC: 32 µg/mL
Escherichia coli [3]
  MIC: 32 µg/mL
Escherichia coli [4]
  MIC: 16 µg/mL
Escherichia coli [5]
  MIC: 16 µg/mL
Escherichia coli [6]
  MIC: 0.016 µg/mL
Escherichia coli [7]
  MIC: 0.016 µg/mL
Escherichia coli [8]
  MIC: 0.016 µg/mL
Escherichia coli [9]
  MIC: 0.016 µg/mL
Escherichia coli [10]
  MIC: 2 µg/mL
Escherichia coli [11]
  MIC: 1 µg/mL
Escherichia coli [12]
  MIC: 1 µg/mL
Escherichia coli [18]
  MIC: 4 µg/mL
Escherichia coli [19]
  MIC: 4 µg/mL
Escherichia coli [20]
  MIC: 4 µg/mL
Escherichia coli [21]
  MIC: 0.016 µg/mL
Escherichia coli [13]
  MIC: 0.016 µg/mL
Escherichia coli [14]
  MIC: 0.5 µg/mL
Escherichia coli [22]
  MIC: 0.5 µg/mL
Escherichia coli [23]
  MIC: 0.5 µg/mL
Escherichia coli [24]
  MIC: 0.5 µg/mL
[15]
  inhibition: Active
[16]
  hemolysis at 1 h: < 5%
[17]
  survival at 72 h, 128 microg/ml: 90%

## COc1ccc(OCCCOc2cccc3c4c(c(C(=O)N5CCOCC5)cc23)CCC(C)(C)O4)cc1
Escherichia coli [1]
  MIC: 32 µg/mL
Escherichia coli [2]
  MIC: 32 µg/mL
Escherichia coli [3]
  MIC: 32 µg/mL
Escherichia coli [4]
  MIC: 16 µg/mL
Escherichia coli [5]
  MIC: 8 µg/mL
Escherichia coli [6]
  MIC: 0.032 µg/mL
Escherichia coli [7]
  MIC: 0.032 µg/mL
Escherichia coli [8]
  MIC: 0.032 µg/mL
Escherichia coli [9]
  MIC: 0.032 µg/mL
Escherichia coli [10]
  MIC: 2 µg/mL
Escherichia coli [11]
  MIC: 2 µg/mL
Escherichia coli [12]
  MIC: 1 µg/mL
Escherichia coli [18]
  MIC: 16 µg/mL
Escherichia coli [19]
  MIC: 16 µg/mL
Escherichia coli [20]
  MIC: 16 µg/mL
Escherichia coli [21]
  MIC: 0.016 µg/mL
Escherichia coli [13]
  MIC: 0.032 µg/mL
Escherichia coli [14]
  MIC: 0.5 µg/mL
Escherichia coli [22]
  MIC: 0.5 µg/mL
Escherichia coli [23]
  MIC: 0.5 µg/mL
Escherichia coli [24]
  MIC: 0.25 µg/mL
[15]
  inhibition: Active
Cell membrane
  Activity: inactive
[16]
  hemolysis at 1 h: < 5%
[17]
  survival at 72 h, 128 microg/ml: 90%
